Results published in ChEMBL document CHEMBL5212743, “Selectivity Literature for EUbOPEN Chemogenomics Library wave 3” (2023).
pKd, pKi: −log10 of the molar value.

Key:
[1] = target: T1, Bromodomain-containing protein 4 (Homo sapiens, UniProt O60885); assay: (§1) Selectivity interaction (Bromodomain panel (DSF assay)) EUB0000195c BRD4
[2] = target: T2, Muscarinic acetylcholine receptor M2 (Homo sapiens) (UniProt P08172); assay: Selectivity interaction (CEREP panel (nuclear receptors, ion channels, and […] other enzymes, including 10 kinases, 9 proteases, and 5 phosphodiesterases)) EUB0000195c CHRM2; settings: at 10 µM
T2 sequence (whole entry): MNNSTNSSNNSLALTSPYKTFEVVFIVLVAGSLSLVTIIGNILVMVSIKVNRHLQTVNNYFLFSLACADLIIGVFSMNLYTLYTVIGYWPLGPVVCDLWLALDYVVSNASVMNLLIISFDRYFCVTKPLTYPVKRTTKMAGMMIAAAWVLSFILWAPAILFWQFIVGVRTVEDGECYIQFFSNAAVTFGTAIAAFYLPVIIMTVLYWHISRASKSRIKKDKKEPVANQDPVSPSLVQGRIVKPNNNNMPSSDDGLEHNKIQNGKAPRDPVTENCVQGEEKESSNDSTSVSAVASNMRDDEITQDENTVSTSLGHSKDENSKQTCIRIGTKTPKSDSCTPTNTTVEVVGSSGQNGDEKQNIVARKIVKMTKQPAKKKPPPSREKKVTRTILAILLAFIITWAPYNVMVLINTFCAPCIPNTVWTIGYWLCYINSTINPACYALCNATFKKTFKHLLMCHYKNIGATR

CREB-binding protein [3] = target: T3, CREB-binding protein (Homo sapiens, UniProt Q92793)
[4] = target: T4, Alpha-1A adrenergic receptor (Homo sapiens) (UniProt P35348); assay: Selectivity interaction (CEREP panel (nuclear receptors, ion channels, and […] other enzymes, including 10 kinases, 9 proteases, and 5 phosphodiesterases)) EUB0000195c ADRA1A; settings: at 10 µM
T4 sequence (whole entry): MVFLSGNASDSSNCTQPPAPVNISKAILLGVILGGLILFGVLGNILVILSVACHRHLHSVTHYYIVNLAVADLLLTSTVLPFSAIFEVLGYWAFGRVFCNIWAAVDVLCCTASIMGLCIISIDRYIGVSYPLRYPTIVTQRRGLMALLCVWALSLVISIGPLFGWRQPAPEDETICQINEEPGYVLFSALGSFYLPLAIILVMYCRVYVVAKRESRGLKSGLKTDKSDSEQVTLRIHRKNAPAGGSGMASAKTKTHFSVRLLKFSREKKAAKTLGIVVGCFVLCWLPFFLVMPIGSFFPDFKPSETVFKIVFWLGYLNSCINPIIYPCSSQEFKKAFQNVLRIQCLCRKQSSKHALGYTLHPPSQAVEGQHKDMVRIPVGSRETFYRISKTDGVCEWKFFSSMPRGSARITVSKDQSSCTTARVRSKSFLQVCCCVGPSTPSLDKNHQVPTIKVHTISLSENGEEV

[5] = target: T1, Bromodomain-containing protein 4; assay: as §1; remark: listed apart in the source
CREB-binding protein [6] = target: T3, CREB-binding protein; remark: listed apart in the source
[7] = target: Histone acetyltransferase p300 (Homo sapiens) (UniProt Q09472); assay: Selectivity interaction (DSF assay) EUB0000195c EP300
[8] = target: Bromodomain-containing protein 2 (Homo sapiens) (UniProt P25440); assay: Selectivity interaction (Bromodomain panel (DSF assay)) EUB0000195c BRD2
[9] = target: Bromodomain-containing protein 3 (Homo sapiens) (UniProt Q15059); assay: Selectivity interaction (Bromodomain panel (DSF assay)) EUB0000195c BRD3
[10] = target: T1, Bromodomain-containing protein 4; assay: Selectivity interaction (ITC) EUB0000195c BRD4
[11] = target: RNA 5'-monophosphate methyltransferase (Homo sapiens) (UniProt Q7Z5W3); settings: at 50 µM
[12] = target: Sigma non-opioid intracellular receptor 1 (Homo sapiens, UniProt Q99720); assay: Selectivity interaction (GPCR panel (PDSP screen)) EUB0000103c SIGMAR1
[13] = target: Histone-arginine methyltransferase CARM1 (Homo sapiens) (UniProt Q86X55)
[14] = target: Sigma intracellular receptor 2 (Homo sapiens, UniProt Q5BJF2); assay: Selectivity interaction (GPCR panel (PDSP screen)) EUB0000103c TMEM97
[15] = target: Protein arginine N-methyltransferase 6 (Homo sapiens, UniProt Q96LA8)
[16] = target: Sodium channel protein type 2 subunit alpha (Homo sapiens, UniProt Q99250); settings: at 10 µM
[17] = target: Tyrosine-protein kinase Fer (Homo sapiens, UniProt P16591); assay: Selectivity interaction (Z’-LYTE assay (SelectScreen Invitrogen)) EUB0000690a FER
[18] = target: Protein-tyrosine kinase 2-beta (Homo sapiens, UniProt Q14289); assay: Selectivity interaction (Z’-LYTE assay (SelectScreen Invitrogen)) EUB0000690a PTK2B
[19] = target: NT-3 growth factor receptor (Homo sapiens, UniProt Q16288); assay: Selectivity interaction (Z’-LYTE assay (SelectScreen Invitrogen)) EUB0000690a NTRK3
Activated CDC42 kinase 1 = Activated CDC42 kinase 1 (Homo sapiens, UniProt Q07912); assay: Selectivity interaction (Z’-LYTE assay (SelectScreen Invitrogen)) EUB0000690a TNK2
[20] = target: Tyrosine-protein kinase JAK2 (Homo sapiens, UniProt O60674); assay: Selectivity interaction (Z’-LYTE assay (SelectScreen Invitrogen)) EUB0000690a JAK2
[21] = target: Epidermal growth factor receptor (Homo sapiens, UniProt P00533, L858R); assay: (§2) Selectivity interaction (Z’-LYTE assay (SelectScreen Invitrogen)) EUB0000690a EGFR
[22] = target: Epidermal growth factor receptor (Homo sapiens, UniProt P00533, T790M); assay: as §2
[23] = target: High affinity nerve growth factor receptor (Homo sapiens, UniProt P04629); assay: Selectivity interaction (Z’-LYTE assay (SelectScreen Invitrogen)) EUB0000690a NTRK1
[24] = target: Tyrosine-protein kinase FRK (Homo sapiens, UniProt P42685); assay: Selectivity interaction (Z’-LYTE assay (SelectScreen Invitrogen)) EUB0000690a FRK
[25] = target: Leukocyte tyrosine kinase receptor (Homo sapiens, UniProt P29376); assay: Selectivity interaction (Z’-LYTE assay (SelectScreen Invitrogen)) EUB0000690a LTK
Focal adhesion kinase 1 = Focal adhesion kinase 1 (Homo sapiens, UniProt Q05397); assay: Selectivity interaction (Z’-LYTE assay (SelectScreen Invitrogen)) EUB0000690a PTK2
[26] = target: Tyrosine-protein kinase Fes/Fps (Homo sapiens, UniProt P07332); assay: Selectivity interaction (Z’-LYTE assay (SelectScreen Invitrogen)) EUB0000690a FES
[27] = target: BMP-2-inducible protein kinase (Homo sapiens) (UniProt Q9NSY1); assay: Selectivity interaction (KinomeScan (DiscoverX)) EUB0000717a BMP2K; settings: at 1 µM
[28] = target: Sodium-dependent dopamine transporter (Homo sapiens, UniProt Q01959); assay: Selectivity interaction (GPCR panel (PDSP screen)) EUB0000717a SLC6A3
[29] = target: T5, Cyclin-G-associated kinase (Homo sapiens) (UniProt O14976); assay: Selectivity interaction (KinomeScan (DiscoverX)) EUB0000717a GAK; settings: at 1 µM
T5 sequence (whole entry): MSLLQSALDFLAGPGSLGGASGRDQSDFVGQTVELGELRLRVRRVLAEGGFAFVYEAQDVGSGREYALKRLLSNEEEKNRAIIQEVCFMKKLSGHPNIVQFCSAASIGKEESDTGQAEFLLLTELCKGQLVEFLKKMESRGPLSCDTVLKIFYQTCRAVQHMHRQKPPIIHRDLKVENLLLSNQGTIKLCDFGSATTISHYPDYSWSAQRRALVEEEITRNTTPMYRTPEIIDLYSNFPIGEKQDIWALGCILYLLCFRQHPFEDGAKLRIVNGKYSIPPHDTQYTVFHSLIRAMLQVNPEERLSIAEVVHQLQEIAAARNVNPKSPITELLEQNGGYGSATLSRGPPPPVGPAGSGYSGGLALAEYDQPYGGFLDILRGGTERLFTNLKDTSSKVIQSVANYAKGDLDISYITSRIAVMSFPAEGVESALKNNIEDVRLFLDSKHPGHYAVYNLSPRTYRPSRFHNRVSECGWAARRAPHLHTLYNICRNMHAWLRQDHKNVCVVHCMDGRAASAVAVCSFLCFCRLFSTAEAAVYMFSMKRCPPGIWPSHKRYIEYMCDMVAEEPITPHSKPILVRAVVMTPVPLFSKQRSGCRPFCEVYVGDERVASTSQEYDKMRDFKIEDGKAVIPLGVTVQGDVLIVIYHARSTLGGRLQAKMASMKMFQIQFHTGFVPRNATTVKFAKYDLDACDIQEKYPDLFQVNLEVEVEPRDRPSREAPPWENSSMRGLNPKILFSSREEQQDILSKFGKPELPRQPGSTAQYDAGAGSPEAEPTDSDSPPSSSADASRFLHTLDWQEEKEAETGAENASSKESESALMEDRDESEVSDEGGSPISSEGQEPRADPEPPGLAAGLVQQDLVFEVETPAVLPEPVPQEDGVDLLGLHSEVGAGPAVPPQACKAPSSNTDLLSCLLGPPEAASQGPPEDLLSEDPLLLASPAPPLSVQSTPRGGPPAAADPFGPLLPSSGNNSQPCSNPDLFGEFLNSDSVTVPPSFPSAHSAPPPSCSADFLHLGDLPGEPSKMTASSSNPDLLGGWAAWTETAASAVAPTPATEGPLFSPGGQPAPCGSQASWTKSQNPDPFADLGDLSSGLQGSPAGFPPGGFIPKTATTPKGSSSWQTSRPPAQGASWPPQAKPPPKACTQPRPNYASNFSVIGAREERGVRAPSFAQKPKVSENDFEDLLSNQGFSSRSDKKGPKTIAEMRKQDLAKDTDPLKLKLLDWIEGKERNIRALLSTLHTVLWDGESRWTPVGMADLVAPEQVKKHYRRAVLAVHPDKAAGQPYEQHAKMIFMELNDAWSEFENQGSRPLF

[30] = target: T6, Adenosine receptor A1 (Homo sapiens) (UniProt P30542); settings: at 10 µM
T6 sequence (whole entry): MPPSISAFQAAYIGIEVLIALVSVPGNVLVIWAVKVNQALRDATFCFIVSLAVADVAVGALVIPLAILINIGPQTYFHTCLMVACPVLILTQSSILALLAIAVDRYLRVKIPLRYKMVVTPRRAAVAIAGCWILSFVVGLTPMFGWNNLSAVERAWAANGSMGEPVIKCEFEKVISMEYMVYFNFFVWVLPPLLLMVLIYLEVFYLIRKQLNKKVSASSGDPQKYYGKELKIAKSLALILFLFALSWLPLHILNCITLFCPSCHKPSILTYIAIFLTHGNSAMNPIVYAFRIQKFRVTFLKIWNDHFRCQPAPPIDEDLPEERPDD

[31] = target: T1, Bromodomain-containing protein 4; assay: Selectivity interaction (ITC) EUB0000205c BRD4
[32] = target: Kappa-type opioid receptor (Homo sapiens, UniProt P41145); settings: at 10 µM
[33] = target: Sodium-dependent noradrenaline transporter (Homo sapiens, UniProt P23975); settings: at 10 µM
[34] = target: Dual specificity protein kinase CLK2 (Homo sapiens, UniProt P49760); assay: Selectivity interaction (NanoBRET assay (HEK293T cells)) EUB0000009b CLK2
[35] = target: Dual specificity tyrosine-phosphorylation-regulated kinase 1B (Homo sapiens, UniProt Q9Y463); assay: Selectivity interaction (NanoBRET assay (HEK293T cells)) EUB0000009b DYRK1B
[36] = target: Dual specificity tyrosine-phosphorylation-regulated kinase 2 (Homo sapiens, UniProt Q92630); assay: Selectivity interaction (NanoBRET assay (HEK293T cells)) EUB0000009b DYRK2
[37] = target: Dual specificity tyrosine-phosphorylation-regulated kinase 1A (Homo sapiens, UniProt Q13627); assay: Selectivity interaction (NanoBRET assay (HEK293T cells)) EUB0000009b DYRK1A

Tyrosine-protein kinase FRK, sequence (P42685 whole entry): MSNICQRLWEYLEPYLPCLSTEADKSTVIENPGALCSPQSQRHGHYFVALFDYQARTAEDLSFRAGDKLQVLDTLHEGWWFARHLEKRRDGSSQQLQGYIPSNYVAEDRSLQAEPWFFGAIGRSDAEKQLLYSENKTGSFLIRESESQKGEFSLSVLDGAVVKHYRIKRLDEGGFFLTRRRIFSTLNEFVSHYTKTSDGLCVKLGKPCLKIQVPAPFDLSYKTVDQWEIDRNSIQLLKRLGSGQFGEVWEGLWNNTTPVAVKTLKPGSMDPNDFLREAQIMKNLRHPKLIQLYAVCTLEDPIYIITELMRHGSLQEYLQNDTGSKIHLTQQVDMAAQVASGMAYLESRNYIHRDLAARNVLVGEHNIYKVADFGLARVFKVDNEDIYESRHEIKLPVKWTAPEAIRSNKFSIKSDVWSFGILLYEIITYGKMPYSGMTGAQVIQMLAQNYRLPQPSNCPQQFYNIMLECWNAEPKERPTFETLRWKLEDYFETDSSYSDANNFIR
Tyrosine-protein kinase JAK2, sequence (O60674 whole entry): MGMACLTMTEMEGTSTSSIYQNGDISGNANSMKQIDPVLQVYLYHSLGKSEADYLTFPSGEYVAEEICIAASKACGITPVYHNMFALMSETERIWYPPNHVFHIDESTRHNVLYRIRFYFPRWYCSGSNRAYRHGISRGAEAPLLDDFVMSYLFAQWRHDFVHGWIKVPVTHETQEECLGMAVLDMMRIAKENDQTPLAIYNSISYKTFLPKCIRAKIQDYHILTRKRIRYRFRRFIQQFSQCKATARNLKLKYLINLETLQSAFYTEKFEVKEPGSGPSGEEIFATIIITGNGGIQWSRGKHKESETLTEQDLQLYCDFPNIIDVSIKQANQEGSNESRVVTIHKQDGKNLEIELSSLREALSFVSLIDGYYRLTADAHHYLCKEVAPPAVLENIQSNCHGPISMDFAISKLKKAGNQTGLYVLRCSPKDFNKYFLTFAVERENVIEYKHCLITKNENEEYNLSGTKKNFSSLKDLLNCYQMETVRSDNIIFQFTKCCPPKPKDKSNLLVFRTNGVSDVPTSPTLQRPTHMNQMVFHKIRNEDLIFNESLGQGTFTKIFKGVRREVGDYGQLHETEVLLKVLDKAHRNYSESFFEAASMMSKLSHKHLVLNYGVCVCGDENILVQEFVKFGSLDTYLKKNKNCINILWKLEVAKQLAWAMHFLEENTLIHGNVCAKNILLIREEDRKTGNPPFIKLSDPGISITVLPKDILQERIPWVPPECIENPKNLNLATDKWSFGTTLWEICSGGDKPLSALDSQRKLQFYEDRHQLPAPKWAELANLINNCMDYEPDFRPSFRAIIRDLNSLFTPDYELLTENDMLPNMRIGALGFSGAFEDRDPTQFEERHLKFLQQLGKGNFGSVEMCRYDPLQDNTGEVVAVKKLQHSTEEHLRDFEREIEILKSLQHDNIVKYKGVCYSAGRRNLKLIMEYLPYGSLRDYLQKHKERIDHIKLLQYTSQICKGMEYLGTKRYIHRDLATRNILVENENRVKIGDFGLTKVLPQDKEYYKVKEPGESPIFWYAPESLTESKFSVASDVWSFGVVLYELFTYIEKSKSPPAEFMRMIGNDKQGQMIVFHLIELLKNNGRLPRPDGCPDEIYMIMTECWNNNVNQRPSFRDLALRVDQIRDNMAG
Sigma non-opioid intracellular receptor 1, sequence (Q99720 whole entry): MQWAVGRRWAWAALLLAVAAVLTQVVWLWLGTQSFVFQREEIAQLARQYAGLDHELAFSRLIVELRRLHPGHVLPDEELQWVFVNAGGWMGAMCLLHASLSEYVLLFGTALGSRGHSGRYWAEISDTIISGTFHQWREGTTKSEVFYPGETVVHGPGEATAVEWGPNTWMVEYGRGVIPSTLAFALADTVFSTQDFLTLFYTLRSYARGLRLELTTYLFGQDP
Kappa-type opioid receptor, sequence (P41145 whole entry): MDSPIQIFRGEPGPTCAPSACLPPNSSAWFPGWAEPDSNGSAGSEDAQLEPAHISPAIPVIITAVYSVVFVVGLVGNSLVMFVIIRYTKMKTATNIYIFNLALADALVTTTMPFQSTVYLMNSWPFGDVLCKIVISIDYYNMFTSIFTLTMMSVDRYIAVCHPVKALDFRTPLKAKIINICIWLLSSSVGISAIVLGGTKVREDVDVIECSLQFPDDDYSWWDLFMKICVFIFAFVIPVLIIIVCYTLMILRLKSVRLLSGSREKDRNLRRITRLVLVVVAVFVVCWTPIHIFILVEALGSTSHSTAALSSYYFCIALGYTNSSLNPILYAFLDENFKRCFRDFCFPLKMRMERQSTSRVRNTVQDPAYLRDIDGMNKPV
Activated CDC42 kinase 1, sequence (Q07912 whole entry): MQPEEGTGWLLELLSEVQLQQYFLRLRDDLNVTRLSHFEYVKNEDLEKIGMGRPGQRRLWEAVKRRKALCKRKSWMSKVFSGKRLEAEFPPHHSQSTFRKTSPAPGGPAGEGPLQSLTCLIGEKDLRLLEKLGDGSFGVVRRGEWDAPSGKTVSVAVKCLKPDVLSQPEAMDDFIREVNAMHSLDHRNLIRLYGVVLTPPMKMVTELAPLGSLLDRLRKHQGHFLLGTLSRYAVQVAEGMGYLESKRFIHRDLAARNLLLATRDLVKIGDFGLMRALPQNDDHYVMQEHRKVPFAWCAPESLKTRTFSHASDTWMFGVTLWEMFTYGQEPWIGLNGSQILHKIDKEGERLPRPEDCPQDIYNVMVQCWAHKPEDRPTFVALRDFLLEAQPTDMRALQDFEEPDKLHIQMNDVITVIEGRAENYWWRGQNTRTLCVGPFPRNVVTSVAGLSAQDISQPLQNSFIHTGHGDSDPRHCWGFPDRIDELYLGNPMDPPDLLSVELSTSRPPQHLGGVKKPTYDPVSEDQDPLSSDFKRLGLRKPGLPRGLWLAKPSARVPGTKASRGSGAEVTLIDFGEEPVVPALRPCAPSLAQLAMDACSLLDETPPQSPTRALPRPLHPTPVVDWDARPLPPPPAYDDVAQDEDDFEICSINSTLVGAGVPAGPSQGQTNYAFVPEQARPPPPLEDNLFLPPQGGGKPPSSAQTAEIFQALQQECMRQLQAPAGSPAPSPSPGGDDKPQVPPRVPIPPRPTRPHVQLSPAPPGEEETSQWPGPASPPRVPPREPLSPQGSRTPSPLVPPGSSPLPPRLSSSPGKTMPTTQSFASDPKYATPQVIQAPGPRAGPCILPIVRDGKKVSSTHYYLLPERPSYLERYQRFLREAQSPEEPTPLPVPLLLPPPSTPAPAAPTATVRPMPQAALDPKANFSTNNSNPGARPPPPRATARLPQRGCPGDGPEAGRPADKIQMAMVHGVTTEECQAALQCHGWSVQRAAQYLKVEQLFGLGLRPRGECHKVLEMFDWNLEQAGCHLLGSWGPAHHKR
RNA 5'-monophosphate methyltransferase (Homo sapiens), sequence (Q7Z5W3 whole entry): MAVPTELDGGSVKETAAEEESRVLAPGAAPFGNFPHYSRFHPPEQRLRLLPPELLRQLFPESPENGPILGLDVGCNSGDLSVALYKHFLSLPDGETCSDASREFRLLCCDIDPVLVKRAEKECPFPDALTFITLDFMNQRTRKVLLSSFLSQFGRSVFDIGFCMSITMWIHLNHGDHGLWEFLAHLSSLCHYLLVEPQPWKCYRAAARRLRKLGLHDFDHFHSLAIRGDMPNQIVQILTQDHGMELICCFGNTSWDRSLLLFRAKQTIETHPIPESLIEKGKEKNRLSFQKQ
Sodium-dependent dopamine transporter, sequence (Q01959 whole entry): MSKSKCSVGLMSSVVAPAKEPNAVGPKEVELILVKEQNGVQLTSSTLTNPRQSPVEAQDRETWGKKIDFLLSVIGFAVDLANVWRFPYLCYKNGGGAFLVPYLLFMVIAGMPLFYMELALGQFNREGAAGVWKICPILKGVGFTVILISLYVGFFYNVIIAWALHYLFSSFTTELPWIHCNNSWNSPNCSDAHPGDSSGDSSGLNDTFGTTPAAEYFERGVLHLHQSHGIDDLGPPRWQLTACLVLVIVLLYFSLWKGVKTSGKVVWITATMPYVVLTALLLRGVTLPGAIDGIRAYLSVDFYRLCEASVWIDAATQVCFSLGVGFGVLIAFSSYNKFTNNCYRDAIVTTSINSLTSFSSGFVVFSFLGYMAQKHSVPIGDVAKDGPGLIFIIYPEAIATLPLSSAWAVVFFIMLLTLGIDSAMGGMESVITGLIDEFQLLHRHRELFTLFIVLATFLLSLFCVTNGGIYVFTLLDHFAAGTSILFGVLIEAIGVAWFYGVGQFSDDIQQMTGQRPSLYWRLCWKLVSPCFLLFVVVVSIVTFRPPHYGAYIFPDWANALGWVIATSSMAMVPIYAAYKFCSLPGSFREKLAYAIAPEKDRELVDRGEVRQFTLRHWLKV
Bromodomain-containing protein 2 (Homo sapiens), sequence (P25440 whole entry, looked up): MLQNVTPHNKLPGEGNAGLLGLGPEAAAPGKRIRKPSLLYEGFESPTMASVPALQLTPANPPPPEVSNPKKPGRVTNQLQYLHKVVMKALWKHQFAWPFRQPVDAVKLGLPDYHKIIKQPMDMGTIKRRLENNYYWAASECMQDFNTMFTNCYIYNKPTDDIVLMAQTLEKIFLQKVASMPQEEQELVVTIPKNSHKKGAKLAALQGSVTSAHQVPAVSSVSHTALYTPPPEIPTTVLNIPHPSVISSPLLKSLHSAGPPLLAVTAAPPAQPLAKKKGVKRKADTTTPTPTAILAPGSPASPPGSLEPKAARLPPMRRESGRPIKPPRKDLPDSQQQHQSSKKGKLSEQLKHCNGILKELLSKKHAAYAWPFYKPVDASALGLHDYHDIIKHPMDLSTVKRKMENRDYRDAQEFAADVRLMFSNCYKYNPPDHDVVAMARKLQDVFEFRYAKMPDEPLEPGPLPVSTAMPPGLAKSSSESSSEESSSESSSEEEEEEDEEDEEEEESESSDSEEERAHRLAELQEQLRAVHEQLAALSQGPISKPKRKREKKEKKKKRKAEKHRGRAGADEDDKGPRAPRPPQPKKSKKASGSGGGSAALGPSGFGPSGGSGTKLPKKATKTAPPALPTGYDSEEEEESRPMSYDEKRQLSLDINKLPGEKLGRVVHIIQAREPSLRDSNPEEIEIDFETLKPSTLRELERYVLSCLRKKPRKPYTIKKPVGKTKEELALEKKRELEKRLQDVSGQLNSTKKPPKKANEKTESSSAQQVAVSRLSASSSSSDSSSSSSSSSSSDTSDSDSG

CCC(=O)N1CCOc2c(cc(-c3ccc(OC)c(OC)c3)cc2OC[C@H]2CCCN(C)C2)C1
dTm [1]: 2.09 K | % of inhibition [2]: 67% | dTm (CREB-binding protein [3]): 7.8 K | % of inhibition [4]: 89% | dTm [5]: 0.58 K | pKd (CREB-binding protein [6]): 6.77 | dTm [7]: 8.6 K | dTm [8]: 1.35 K | dTm [9]: 1.55 K | pKd [10]: < 4.70

CNCCN1CCC(OCc2ccccc2)CC1
% activity remaining [11]: 78% | pKi [12]: 7.27 | dTm [13]: 3.3 K | pKi [14]: 6.24 | dTm [15]: 11.3 K | inhibition [16]: 31%

C[C@H]1Oc2cc(cnc2N)-c2c(nn(C)c2C#N)CN(C)C(=O)c2ccc(F)cc21 [LORLATINIB]
pKi [17]: 8.48 | pKi [18]: 7.85 | pKi [19]: 7.34 | pKi (Activated CDC42 kinase 1): 7.77 | pKi [20]: 6.28 | pKi [21]: 7.25 | pKi [22]: 6.50 | pKi [23]: 7.62 | pKi [24]: 7.28 | pKi [25]: 8.57 | pKi (Focal adhesion kinase 1): 7.77 | pKi [26]: 8.22

O=C1c2ccc(Nc3ccc(F)cc3F)cc2CCc2ccc(OC[C@H](O)CO)cc21 [Skepinone-L]
% of control [27]: 37% | pKi [28]: < 5.00 | % of control [29]: 53%

COc1cc(C#N)ccc1S(=O)(=O)Nc1ccc2c(c1)cc(C)c(=O)n2C
mean % of control [30]: 62% | pKd [31]: 5.41 | mean % of control [32]: 80% | mean % of control [33]: 61%

Cn1cc(-c2ccc3occ(-c4ccccc4-c4ccccc4)c3n2)cn1
pKi [34]: < 5.00 | pKi [35]: < 5.00 | pKi [36]: < 5.00 | pKi [37]: < 5.00
